Assay results reported in patent US20260199213A1, “PEPTIDE HAVING ACTIVITY OF IMPROVING STATE OF SKIN, AND USE THEREOF” (CAREGEN CO., LTD., priority 2022, published 2026).

Assays:
Format in all cases: cell-based
MMP-1 = MMP-1 expression increased by ultraviolet rays in NIH3T3 cells (western blot); conditions: 6 J/cm^2 UV, 10 μM, 50 μM or 1000 μM peptide, 24 hours, FIG. 14
Source text: It has been reported that MMP-1 (matrix metalloproteinase-1) promotes the decomposition of collagen and the reduction of elastin in the dermis layer, thereby creating wrinkles and causing a decrease in elasticity in the skin. Accordingly, in this example, the aim was to confirm the effect of the peptide according to an embodiment on improving extrinsic skin aging, including improving wrinkles and increasing elasticity, etc., by evaluating the change in the expression level of MMP-1 increased by ultraviolet irradiation.
(§1) Specifically, NIH3T3 cells or HaCaT cells were seeded in a 6-well plate at a density of 5×10^5 cells/well and cultured for 24 hours. Next, the cells were washed once with serum-free DMEM media, and 10 μM, 50 μM or 1000 μM of the peptide consisting of the amino acid sequence of SEQ ID NO: 1 was dispensed into 1 mL of the serum-free media, and cultured in a CO2 incubator at 37° C. for 1 hour. Next, the above culture was transferred to an e-tube, mixed with 1 ml of PBS, and dispensed into a well plate. Next, using a UV irradiator (VILBER LOURMAT, Cat No.: 3102-BSU, France), 6 J/cm^2 ultraviolet rays were irradiated to NIH3T3 cells, and 20 mJ/cm^2 ultraviolet rays were irradiated to HaCaT cells. […] Next, MMP-1 was detected using 15. […]

aquaporin-3 (AQP3) = test: AQP3 expression by RT-PCR in HaCaT cells; conditions: 10 μM, 50 μM or 1000 μM peptide, 24 hours
Experimental: In this example, the aim was to confirm the effect of the peptides according to an example on strengthening the skin barrier, by evaluating the expression levels of sirtuin-1 (SIRT-1) or aquaporin-3 (AQP3).
Specifically, HaCaT cells were seeded in a 6-well plate at a density of 3×10^5 cells/well and cultured for 24 hours. Next, the cells were washed once with serum-free DMEM media, and 10 μM, 50 μM or 1000 μM of the peptide consisting of the amino acid sequence of SEQ ID NO: 1 was dispensed into 1 mL of the serum-free media, and cultured in a CO2 incubator at 37° C. for 24 hours. Next, the culture was washed twice with PBS, and RNA was isolated from the culture using easy blue (iNtRON, Cat. No.: 17061, Korea). Next, using an RT kit (Enzynomics, Cat. NO.: RT200, Korea), the isolated RNA was reverse transcribed to synthesize the respective cDNA. Next, using the synthesized 1 ug cDNA, primers for SIRT-1 or AQP3, and a PCR kit (Enzynomics, Cat. No.: P581T, Korea), polymerase chain reaction (PCR) was performed. Meanwhile, in this example, an untreated group was used as the control group, and a group to which EGF was added was used as a positive control group, the nucleotide sequences of the primers used in this example are shown in Table 3 below.

[1] = tested on: reactive oxygen species in NIH3T3 cells; test: Reactive oxygen species increased by ultraviolet rays in NIH3T3 cells (DCF-DA, flow cytometry); conditions: fibroblasts (NIH3T3); 6 J/cm^2 UV; 10 μM, 50 μM or 1000 μM peptide; 24 hours
Experimental: In this example, the aim was to confirm the effect of the peptide according to an embodiment on the antioxidant effect in damaged skin, by evaluating the change in the level of reactive oxygen species in skin cells increased by ultraviolet irradiation.
as §1, with “15” for “20”, “cells. Next, the PBS in the well plate was removed, 900 μL of the culture medium in which the peptides were dispensed was added, and the plate was cultured in a CO2 incubator at 37° C. for 24 hours.” for “cells.”, “After washing the centrifuged cells with PBS, FL1 fluorescence values were measured through flow cytometry (FACS, BD, USA).” for “Next, MMP-1 was detected using 15.”

Substance: GPRGDP [SEQ ID NO: 1]
- expression of MMP-1 increased by ultraviolet irradiation (MMP-1): reduced or restored
- expression of skin barrier factor AQP3 (aquaporin-3 (AQP3)): increases
- level of reactive oxygen species increased by ultraviolet irradiation [1]: reduced
